Reference: patent US7906488B2, “Sphingolipids in treatment and prevention of steatosis and of steatosis or of hepatotoxicity and its sequelae” (Nederlandse Organisatie Voor …, priority 2004, dated 2011)

Key:
Type in all cases: in vivo
APOE*3Leiden mice [1] = assay: Effect of dietary sphingolipids on plasma C and TG levels (0.1, 0.2, 0.4% in diet); conditions: 0.4% sphingolipid in diet, compared with 0.2%
From the text: Sphingolipids: The three sphingolipids that represent the most abundant natural complex sphingolipid classes and the three of the simplest natural sphingolipids, the sphingoid bases that can be formed by enzymatic breakdown of complex sphingolipids in the intestine were used. Sphingomyelin (mainly N-palmitoyl-sphingosine-1-phosphocholine) from egg was obtained from Larodan Fine Chemicals (Stockholm, Sweden). Yeast-derived (semi)synthetic ceramide III (N-stearoyl-phytosphingosine), cerebroside (N-stearoyl-phytosphingosine-1-glucose) and phytosphingosine (PS) were from Cosmoferm BV (Delft, the Netherlands). Sphinganine and sphingosine were from Avanti Polar Lipids (Albaster, Ala.). Animals and diets: Heterozygous female APOE*3Leiden transgenic mice (Van Vlijmen et al. 1994. J. Clin. Invest 93:1403-1410.) (6 months old) were fed a Western-type diet (Hope Farms, Woerden, the Netherlands) containing 15% cocoa butter, 0.25% cholesterol, 1% corn oil, 40.5% sucrose, 20% acid casein, 10% corn starch and 5.95% cellulose (all w/w) for 5 weeks. The mice were allowed free access to food and water. Body weight and food intake were monitored weekly. In the first experiment (FIG. 2), the mice were randomized after these 5 weeks into 7 groups (n=6), based on plasma cholesterol, triglycerides, and body weight. Subsequently, the mice were fed for three weeks the same diet without or with 0.1% (w/w) phytosphingosine (PS), sphingosine, sphinganine, cerebroside, ceramide III, or sphingomyelin. […]
Plasma parameters: Tail blood samples were collected in EDTA-coated cups, or in paraoxon-coated capillaries to prevent lipolysis as described in Zambon et al. 1993 (Zambon et al. 1993. J. Lipid Res. 34:1021-1028). Plasma lipid parameters were determined using commercial kits for total cholesterol (C) Chol R1 from Roche Diagnostics, Mannheim, Germany), non-esterified free fatty acids (FFA) (NEFA-C; Wako chemicals, Neuss, Germany), Total triglycerides (TG) (Triglyceride GPO-Trinder; Sigma, St. Louis, Mo.), β-hydroxybutyrate (β-HB; Sigma) and ALAT (Reflotron GPT; Roche). Serum amyloid A (SAA) was measured by ELISA (Biosource, Nivelles, Belgium) and fibrinogen by sandwich ELISA, as described in Koopman et al., 2005 (Koopman et al. 2005. Fibrinol Proteol 11:19). […] Hepatic VLDL-TG production: The rate of hepatic VLDL-TG production, de novo apoB secretion, and VLDL composition were determined in overnight-fasted mice. […] After 30 min, the animals received a Triton WR1339 injection (Tyloxapol, Sigma; 500 mg/kg body weight in 100 μl saline) to prevent systemic lipolysis of newly-secreted hepatic VLDL-TG (Aalto-Setala et al. 1992. J. Clin. Invest 90:1889-1900.27) Blood samples were drawn at 0, 15, 30, 60, and 90 min after Triton WR1339 injection and plasma TG concentrations were determined. […]

APOE3*Leiden (E3L) mice = assay: High fat high cholesterol diet feeding for 16 weeks (Example 1)
Description: Forty-five female heterozygous APOE3*Leiden […]) mice were fed a high fat and high cholesterol diet for four weeks (week -4 to 0). The mice were housed during the experiment in clean-conventional animal rooms (relative humidity 50-60%, temperature 21° C., light cycle 6 am to 6 pm). Mice were supplied with food and acidified tap water ad libitum. At week 0, the mice were randomized on the basis of plasma total triglyceride and cholesterol levels into a control group of fifteen mice and two treatment groups of fifteen mice. The groups were: • 1. high fat, high cholesterol diet only • 2. high fat, high cholesterol diet plus 0.7% (w/w) phytosphingosine • 3. high fat, 'high' cholesterol diet with a reduced cholesterol content, resulting in about the same plasma cholesterol level as was obtained in group 2. The treatment was continued for 16 weeks. During the treatment period, tail blood samples were obtained at week 0, 2, 4, 8, 12, and 16 to measure plasma cholesterol and triglyceride levels and to determine plasma lipoprotein composition. After sixteen weeks, mice were autopsied, liver weight was determined. Body weight and food consumption were determined every four weeks Dietary ingredients were provided by Hope Farms (Woerden, the Netherlands). For group 1 (high cholesterol), the hypercholesterolemic Western-type diet (W-diet) described by Nishina et al (J. Lipid Res. 1990; 31:859) was supplemented with cholesterol (0.5% w/w, final concentration) and with sodium cholate (0.05% w/w, final concentration). This powdered Western-type diet was mixed with 2% agar and freeze-dried as pellets. The diet for group 2 (treatment group) was prepared by the addition of 0.7% (w/w) phytosphingosine to the same powdered Western-type diet (i.e. also supplemented with cholesterol (0.5% w/w, final concentration) and sodium cholate (0.05% w/w, final concentration)). The supplemented diet mixture was mixed with 2% agar and freeze-dried as pellets. The diet W for group 3 (low cholesterol) contained 0.1% cholesterol, and 0.05% sodium cholate (w/w, final concentration). This powdered Western-type diet was mixed with 2% agar and freeze-dried as pellets. The diets were prepared every eight weeks, and stored in the dark at -20° C. Food was given ad libitum. Total cholesterol was measured using the kit Chol R1 from Roche. Total triglycerides were measured using the kit Triglycerides GPO-PAP from Roche. ALAT was measured by dry chemistry on a Reflotron (Roche).

APOE*3Leiden mice [2] = assay: Plasma parameters, body and liver weight after 1% PS-containing Western-type diet
From the text: Sphingolipids: The three sphingolipids that represent the most abundant natural complex sphingolipid classes and the three of the simplest natural sphingolipids, the sphingoid bases that can be formed by enzymatic breakdown of complex sphingolipids in the intestine were used. Sphingomyelin (mainly N-palmitoyl-sphingosine-1-phosphocholine) from egg was obtained from Larodan Fine Chemicals (Stockholm, Sweden). Yeast-derived (semi)synthetic ceramide III (N-stearoyl-phytosphingosine), cerebroside (N-stearoyl-phytosphingosine-1-glucose) and phytosphingosine (PS) were from Cosmoferm BV (Delft, the Netherlands). Sphinganine and sphingosine were from Avanti Polar Lipids (Albaster, Ala.). Animals and diets: Heterozygous female APOE*3Leiden transgenic mice (Van Vlijmen et al. 1994. J. Clin. Invest 93:1403-1410.) (6 months old) were fed a Western-type diet (Hope Farms, Woerden, the Netherlands) containing 15% cocoa butter, 0.25% cholesterol, 1% corn oil, 40.5% sucrose, 20% acid casein, 10% corn starch and 5.95% cellulose (all w/w) for 5 weeks. The mice were allowed free access to food and water. Body weight and food intake were monitored weekly. In the first experiment (FIG. 2), the mice were randomized after these 5 weeks into 7 groups (n=6), based on plasma cholesterol, triglycerides, and body weight. Subsequently, the mice were fed for three weeks the same diet without or with 0.1% (w/w) phytosphingosine (PS), sphingosine, sphinganine, cerebroside, ceramide III, or sphingomyelin. Then, the sphingolipid dose was increased to 0.2% (w/w) for 3 weeks and finally to 0.4% (w/w) for 3 weeks. At randomization, and at 3, 6, and 9 weeks, tail vein blood samples were obtained after a 4 h-fast. In all subsequent experiments, female APOE*3Leiden transgenic mice (6 months old) were fed the Western-type diet for 5 weeks, and randomized as described. Subsequently, they were fed the Western-type diet for 5 weeks, or this diet supplemented with 1.0% (w/w) of PS, before being subjected to experimentation.
Plasma parameters: Tail blood samples were collected in EDTA-coated cups, or in paraoxon-coated capillaries to prevent lipolysis as described in Zambon et al. 1993 (Zambon et al. 1993. J. Lipid Res. 34:1021-1028). Plasma lipid parameters were determined using commercial kits for total cholesterol (C) Chol R1 from Roche Diagnostics, Mannheim, Germany), non-esterified free fatty acids (FFA) (NEFA-C; Wako chemicals, Neuss, Germany), Total triglycerides (TG) (Triglyceride GPO-Trinder; Sigma, St. Louis, Mo.), β-hydroxybutyrate (β-HB; Sigma) and ALAT (Reflotron GPT; Roche). Serum amyloid A (SAA) was measured by ELISA (Biosource, Nivelles, Belgium) and fibrinogen by sandwich ELISA, as described in Koopman et al., 2005 (Koopman et al. 2005. Fibrinol Proteol 11:19). For lipoproteins fractionation, groupwise-pooled plasma was size-fractionated by fast protein liquid chromatography (FPLC) on a Superose 6 column (Äkta; Amersham Pharmacia Biotech, Uppsala, Sweden). Fractions were assayed for total C and TG as described. Hepatic VLDL-TG production: The rate of hepatic VLDL-TG production, de novo apoB secretion, and VLDL composition were determined in overnight-fasted mice. Mice were anaesthetized with vetranquil/fentanyl/midazolam i.p., and injected i.v. with 0.1 ml PBS containing 100 μCi Tran^35S-label™ (ICN Biomedicals, Irvine, Calif.) to measure the de novo apoB synthesis. After 30 min, the animals received a Triton WR1339 injection (Tyloxapol, Sigma; 500 mg/kg body weight in 100 μl saline) to prevent systemic lipolysis of newly-secreted hepatic VLDL-TG (Aalto-Setala et al. 1992. J. Clin. Invest 90:1889-1900.27) Blood samples were drawn at 0, 15, 30, 60, and 90 min after Triton WR1339 injection and plasma TG concentrations were determined. After 90 min, the animals were sacrificed and blood was collected by retro-orbital bleeding for isolation of VLDL. […]

[3] = week 16, 0.7% (w/w) phytosphingosine in high fat, high cholesterol diet
[4] = week 16, 0.7% phytosphingosine, p<0.001
[5] = 1% PS in Western-type diet, 5 weeks
[6] = 1% PS in Western-type diet, 5 weeks, 4 h-fasted

`CCCCCCCCCCCCCC[C@@H](O)[C@@H](O)[C@@H](N)CO` [PS, phytosphingosine] was tested, and the “Plasma C” value (APOE*3Leiden mice [1]) was “decreased even more”, the “Body weight and food intake between the three groups” value (APOE3*Leiden (E3L) mice; 0.7% phytosphingosine, 16 weeks) was “did not differ” and the “Final mean body weight” value (APOE3*Leiden (E3L) mice; [3]) was 22.1 gram. The “Final mean liver weight” value (APOE3*Leiden (E3L) mice; [3]) was 1.34 gram, the “Final mean plasma ALAT values” (APOE3*Leiden (E3L) mice; [3]) was 82 U/L and the “ALAT compared with high cholesterol group” value (APOE3*Leiden (E3L) mice; [4]) was “significantly lower”. The “Liver weight compared with high cholesterol group 1” value (APOE3*Leiden (E3L) mice; [4]) was “significantly lower”, the “Effects on body weight or food intake” value (APOE*3Leiden mice [2]; 1% (w/w) PS in Western-type diet, five weeks) was “No effects” and the “Body weight, % Δ vs control” value (APOE*3Leiden mice [2]; [5]) was “n.s”. For the same compound, the “HDL cholesterol (FPLC lipoprotein profile of pooled plasma)” value (APOE*3Leiden mice [2]; [5]) was “did not change”, the “Liver weight, % Δ vs control” value (APOE*3Leiden mice [2]; [5]) was −22% and the “Plasma free fatty acids, % Δ vs control” value (APOE*3Leiden mice [2]; [5]) was −36%. The “Plasma total cholesterol, % Δ vs control” value (APOE*3Leiden mice [2]; [5]) was −57%, the “Plasma triglycerides, % Δ vs control” value (APOE*3Leiden mice [2]; [5]) was −58% and the “Plasma β-hydroxybutyrate, % Δ vs control” value (APOE*3Leiden mice [2]; [5]) was “n.s”. For the same compound, the Body weight (APOE*3Leiden mice [2]; [6]) was 22.6 ± 1.0 g, the Liver weight (APOE*3Leiden mice [2]; [6]) was 1.05 ± 0.08 g and the “Plasma free fatty acids” value (APOE*3Leiden mice [2]; [6]) was 1.06 ± 0.14 mmol/L. The Plasma total cholesterol (APOE*3Leiden mice [2]; [6]) was 6.1 ± 1.1 mmol/L, the Plasma triglycerides (APOE*3Leiden mice [2]; [6]) was 1.19 ± 0.39 mmol/L and the “Plasma β-hydroxybutyrate” value (APOE*3Leiden mice [2]; [6]) was 0.49 ± 0.39 mmol/L.
